Results: PubChem BioAssay (NCI)
Several values for one entry are separate records, joined by “and”; a condition that tells them apart may be missing. Equal values may be shown once.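 Dose response: 5 concentrations. Exposure: 48 h. Format: 96-well plates. Endpoint: linear interpolation; highest concentration if not reached. At the GI50, growth is halved. At the TGI there is no net growth.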

How the values were obtained:
Experiment in all cases: DTP human tumour cell line panel, 48 h
BT-549 breast = test system: BT-549 breast
EKVX NSCLC = test system: EKVX NSCLC
HCC-2998 colon = test system: HCC-2998 colon
HCT-116 colon = test system: HCT-116 colon
KM12 colon = test system: KM12 colon
M14 melanoma = test system: M14 melanoma
MDA-MB-435 = test system: MDA-MB-435
MOLT-4 leukemia = test system: MOLT-4 leukemia
PC-3 prostate = test system: PC-3 prostate
T-47D breast = test system: T-47D breast

Row | SMILES | TGI (BT-549 breast) | TGI (EKVX NSCLC) | TGI (HCC-2998 colon) | TGI (HCT-116 colon) | TGI (KM12 colon) | TGI (M14 melanoma) | TGI (MDA-MB-435) | TGI (MOLT-4 leukemia) | TGI (PC-3 prostate) | GI50 (T-47D breast) | TGI (T-47D breast) | GI50 (BT-549 breast) | GI50 (EKVX NSCLC) | GI50 (HCC-2998 colon) | GI50 (HCT-116 colon) | GI50 (KM12 colon) | GI50 (M14 melanoma) | GI50 (MDA-MB-435) | GI50 (MOLT-4 leukemia) | GI50 (PC-3 prostate)
1 | Brc1ccccc2cc(-c3ccccc3)nc1-2 | 56.5 µM | 40.4 µM | 10.8 µM | 10.5 µM | 32.8 µM | 28.3 µM | > 61 µM | > 92.3 µM | > 64.8 µM | 15.7 µM | > 100 µM |  |  |  |  |  |  |  |  | 
2 | COC(=O)[C@]12CC[C@@H](C)[C@H](C)[C@@H]1C1=CC[C@@H]3[C@@]4(C)C(C=O)=C[C@@](C)(CO)[C@@H]4[C@H](O)C[C@@]3(C)[C@]1(C)CC2 | 14.1 µM | 16 µM | 9.45 µM | 8.97 µM | 15.3 µM | 17.8 µM | 13.4 µM | 8.73 µM | 18.5 µM | 2.11 µM | 13.2 µM | 3.27 µM | 4.03 µM | 3.13 µM | 2.76 µM | 4.02 µM | 4.13 µM | 3.29 µM | 2.79 µM | 4.14 µM
3 | O=S1(=O)c2ccccc2N(c2ccccc2)c2nnnn21 | 70.5 µM | > 100 µM | 36.4 µM | 86.9 µM | > 100 µM | 54.5 µM | > 100 µM | 55.3 µM | > 100 µM |  | > 100 µM |  |  |  |  |  |  |  |  | 
4 | Cc1ccc(N(C=O)c2c([N+](=O)[O-])cc([N+](=O)[O-])c3c2=[N+]([O-])CN=3)cc1 | 69 µM | > 100 µM | 43.3 µM | 67.4 µM | > 100 µM | 44.8 µM | > 100 µM | 80.4 µM | 47.3 µM |  | 39.7 µM |  |  |  |  |  |  |  |  | 
5 | C[C@]12CC[C@H](O[C@@H]3O[C@H](CO[C@@H]4O[C@H](CO)[C@@H](O)[C@H](O)[C@H]4O)[C@@H](O)[C@H](O)[C@H]3O)C[C@@H]1CC[C@@H]1[C@@H]2CC[C@]2(C)[C@@H](C3=CC(=O)OC3)CC[C@]12O | 21.5 µM | 40.4 µM | 51 µM | 34.9 µM | > 100 µM | 62.9 µM | > 100 µM | > 41 µM | > 100 µM |  | > 95.7 µM |  |  |  |  |  |  |  |  | 
6 | N#C/C(=C\c1cc(O)c(O)c(O)c1)C(N)=O | > 100 µM | > 100 µM | > 100 µM | > 100 µM | > 100 µM | > 100 µM | > 100 µM | > 100 µM | > 100 µM |  | > 100 µM |  |  |  |  |  |  |  |  | 
7 | c1ccc(-c2[nH]ncc2-c2ccnc(-c3ccc(OCCN4CCOCC4)cc3)c2)nc1 | > 25 µM | > 25 µM | > 25 µM | > 25 µM | > 25 µM | > 25 µM | > 25 µM | > 25 µM | > 25 µM | > 25 µM | > 25 µM | > 25 µM | > 25 µM | > 25 µM | > 25 µM | > 25 µM | > 25 µM | > 25 µM | > 25 µM | > 25 µM
8 | Cc1cc(O)ccc1C1=NN(c2ccc(S(N)(=O)=O)cc2)C(=O)CC1 | 43.6 µM | 50 µM and > 100 µM | > 100 µM | 50 µM and > 100 µM | 50 µM and > 100 µM | 50 µM and 81.4 µM | 4.35 µM and 5.48 µM | 50 µM and > 100 µM | 50 µM and > 100 µM | 3.23 µM and 13.1 µM | 50 µM and > 100 µM | 1.49 µM | 3.87 µM and 19.2 µM | > 50 µM and 63.9 µM | 3.5 µM and 7.27 µM | 2.89 µM and 6.49 µM | 2.55 µM and 4.48 µM | 0.994 µM and 1.73 µM | 2.67 µM and 6.09 µM | 23.5 µM and 52.1 µM
9 | COc1cccc2c1C(=O)c1c(O)c3c(c(O)c1C2=O)C[C@@](O)(C(=O)CO)CC3OC1CC(N)C(OC2CCCCO2)C(C)O1 (some centres not stated) | 0.481 µM | 1.02 µM and 7.26 µM |  | 1.16 µM and 3.31 µM | 0.583 µM and 3.09 µM |  | 0.229 µM | 0.276 µM and 0.576 µM | 0.363 µM |  | 0.925 µM |  | 0.156 µM | 0.0457 µM |  | 1.19 µM | 0.0529 µM |  | < 0.001 µM | 
10 | CN(C)c1ccc(/C=C(\C#N)c2cc3ccccc3[nH]2)cc1 | > 100 µM | > 100 µM | > 100 µM | > 100 µM | > 100 µM | > 100 µM | 0.641 µM | > 100 µM | 31.6 µM | 0.585 µM | > 100 µM | 3.86 µM | 2.94 µM | 6.59 µM | 0.456 µM | 0.495 µM | 0.551 µM | 0.228 µM | 0.906 µM | 1.15 µM
11 | CCN1CCN(c2nc(C)cc(NCc3cc(Nc4ccnc5cc(Cl)ccc45)ccc3F)n2)CC1 | 4.28 µM | 14 µM | 3.89 µM | 2.75 µM | 10.5 µM | 3.12 µM | 2.91 µM | 16.6 µM | 8.66 µM | 1.73 µM | 5.07 µM | 1.62 µM | 3.03 µM | 1.78 µM | 1.01 µM | 2.95 µM | 1.45 µM | 1.5 µM | 2.44 µM | 1.72 µM
12 | COc1cc(-c2nn(-c3ccc(NC(=O)Nc4cc(C(F)(F)F)cc(C(F)(F)F)c4)cc3)cc2-c2ccncc2)ccc1Cl | 6.03 µM | 3.48 µM | 5.38 µM | 3.39 µM | 3.09 µM | 4.23 µM | 3.99 µM | > 100 µM | 10.8 µM | 1.96 µM | 7.77 µM | 2.61 µM | 1.43 µM | 2.21 µM | 1.65 µM | 1.34 µM | 1.99 µM | 1.88 µM | 3.28 µM | 1.2 µM
13 | Oc1ccc2c(=S)cc(-c3ccc(Br)cc3)oc2c1O | 14.6 µM | 56.6 µM | 7.03 µM | 9.73 µM | 25.6 µM | 6.56 µM | > 100 µM | 6.77 µM | 17.1 µM | 1.27 µM | 5.15 µM | 2.19 µM | 17.9 µM | 2.28 µM | 2.22 µM | 3.35 µM | 2.01 µM | 2.98 µM | 2.16 µM | 2.92 µM
14 | CN1CCC2(CC1)N=C(SCC(=O)Nc1cnc3ccccc3c1)C(c1ccc(Br)cc1)=N2 | 24.4 µM | 10.2 µM | 3.42 µM | 3.16 µM | 6.55 µM | 3.16 µM | 3.21 µM | 4.37 µM | 3.74 µM | 2.24 µM | 7.35 µM | 12 µM | 2.51 µM | 1.85 µM | 1.77 µM | 2.62 µM | 1.71 µM | 1.72 µM | 1.93 µM | 1.77 µM
15 | COc1ccc(OC)c(Nc2nc3nonc3nc2Nc2cccc(Br)c2)c1 | 6.97 µM |  | > 100 µM | > 100 µM | > 100 µM | 44.7 µM | > 100 µM | 12.1 µM | > 100 µM | 0.285 µM | 2.17 µM | 0.537 µM |  | 0.818 µM | 0.53 µM | 1.24 µM | 1.5 µM | 0.538 µM | 0.809 µM | 0.454 µM
16 | COc1ccc(Cn2cc(COc3cc(/C=C/C(=O)c4cc(OC)c(OC)c(OC)c4)ccc3OC)nn2)cc1 | > 100 µM |  | > 100 µM | > 100 µM | > 100 µM | > 100 µM | > 100 µM | > 100 µM | > 100 µM | 3.41 µM | > 100 µM | 3.33 µM |  | 3.9 µM | 3.36 µM | 3.23 µM | 5.6 µM | 2.86 µM | 4.67 µM | 3.63 µM
17 | O=C1/C(=C\c2ccc(F)cc2)CN(C(=O)c2ccccc2F)C/C1=C\c1ccc(F)cc1 | 3.41 µM |  | 3.32 µM | 0.571 µM | 1.32 µM | 3.44 µM | 2.06 µM | 7.49 µM | 4.89 µM | 2.28 µM | 7.02 µM | 1.85 µM |  | 1.81 µM | 0.228 µM | 0.371 µM | 1.51 µM | 0.547 µM | 1.72 µM | 1.62 µM
18 | CCN(CC)CCNC(=O)c1cccc2c1-c1ccccc1C2=O | > 100 µM | > 100 µM | > 100 µM | > 100 µM | > 100 µM | > 100 µM | > 100 µM |  | > 100 µM | > 100 µM | > 100 µM | > 100 µM | > 100 µM | > 100 µM | 55.9 µM | > 100 µM | > 100 µM | > 100 µM |  | > 100 µM
19 | COc1cc2c(cc1OC)C(C(CCCCCC(CCC(C)C)C1NCCc3cc(OC)c(OC)cc31)CCC(C)C)NCC2 (configuration not stated) | 3.12 µM | 3.2 µM | 0.357 µM | 0.388 µM | 1.26 µM | 1.51 µM | 2.25 µM |  | 3.12 µM | 1.44 µM | 3.06 µM | 1.72 µM | 1.49 µM | 0.188 µM | 0.199 µM | 0.438 µM | 0.449 µM | 0.516 µM |  | 1.58 µM
20 | Nc1ccccc1C#C/C=C\C#Cc1ccccc1C#CCO | 41.6 µM | > 50 µM | 10.6 µM | 24.7 µM | 7.8 µM | 26 µM | 4.21 µM |  | > 50 µM | 16.9 µM | > 50 µM | 10.9 µM | 12 µM | 2.95 µM | 8.3 µM | 1.81 µM | 7.68 µM | 1.51 µM |  | 27.5 µM
